Measured values: PubChem BioAssay (NCI)
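Test compounds were applied to cells in 96-well plates for 48 hours at 5 doses. Here, GI50 denotes the concentration required for 50% inhibition of growth. The concentration for full growth arrest is given as TGI.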

Columns and labels:
Assay in all cases: inhibition of tumour cell growth, NCI panel, 48 h
DU-145 prostate = system: DU-145 prostate
HCC-2998 colon = system: HCC-2998 colon
HOP-92 NSCLC = system: HOP-92 NSCLC
MDA-MB-231 breast = system: MDA-MB-231 breast
NCI-H460 lung = system: NCI-H460 lung
NCI-H522 lung = system: NCI-H522 lung
SF-268 CNS = system: SF-268 CNS
SK-MEL-28 melanoma = system: SK-MEL-28 melanoma
T-47D breast = system: T-47D breast
UACC-257 melanoma = system: UACC-257 melanoma

| SMILES | GI50 (DU-145 prostate) [µM] | TGI (DU-145 prostate) [µM] | TGI (HCC-2998 colon) [µM] | GI50 (HOP-92 NSCLC) [µM] | TGI (HOP-92 NSCLC) [µM] | GI50 (MDA-MB-231 breast) [µM] | TGI (MDA-MB-231 breast) [µM] | GI50 (NCI-H460 lung) [µM] | TGI (NCI-H460 lung) [µM] | GI50 (NCI-H522 lung) [µM] | TGI (NCI-H522 lung) [µM] | GI50 (SF-268 CNS) [µM] | TGI (SF-268 CNS) [µM] | GI50 (SK-MEL-28 melanoma) [µM] | TGI (SK-MEL-28 melanoma) [µM] | TGI (T-47D breast) [µM] | GI50 (UACC-257 melanoma) [µM] | TGI (UACC-257 melanoma) [µM] |
| --- | --- | --- | --- | --- | --- | --- | --- | --- | --- | --- | --- | --- | --- | --- | --- | --- | --- | --- |
| Cc1cccc2nc3cccc(C(=O)NCCC[N+](C)(CCCNC(=O)c4cccc5nc6cccc(C)c6nc45)Cc4c([N+](=O)[O-])ncn4C)c3nc12 | 20.8 | > 1100 | 790 | > 1100 | > 1100 | > 1100 | > 1100 | 2.15 | 257 | 16.2 | > 1100 | 19.2 | > 1100 | 403 | > 1100 | > 1100 | 63 | > 1100 |
| COc1ccc(/C=C2\CC3C4CC=C5C[C@@H](O)CC[C@]5(C)C4CC[C@]3(C)\C2=N\O)cc1OC (stereo partly drawn) |  | > 100 | > 100 |  | > 100 |  | > 100 |  | > 100 |  | > 100 |  | > 100 |  | > 100 | > 100 |  | > 100 |
| O=C(NCCCCNCCCNC(=O)c1ccccc1)c1ccccc1 |  | > 100 | > 100 |  | > 100 |  | > 100 |  | > 100 |  | > 100 |  | > 100 |  | > 100 | > 100 |  | > 100 |
| COC(=O)c1ccc(CCc2cc(O)ccc2O)cc1 |  | > 100 | 59.6 |  | 26.4 |  | 29.9 |  | > 68.4 |  | 2.16 |  | > 36.6 |  | 42.2 | 7.91 |  | 32.8 |
